Values joined by “and” are separate entries in the source; they are usually repeats but may differ in a detail not shown here. Equal values may be shown once.
What was measured:
[1] = Particle size of jet-milled / spray-dried DHEA-S (Malvern Mastersizer X, light microscope); type: physicochemical; settings: two batches, visual examination of dispersions
Procedure: Approximately 1 g sample was passed through the jet mill, once, and approximately 2 g sample were passed through the jet mill twice. […] The resulting solution was sonicated for 3 minutes and appeared fully dispersed. The dispersed solutions were tested on a Malvern Mastersizer X with a small volume sampler (SVS) attachment. One sample of dispersed material was tested 5 times. The median particle size or D (v, 0.5) of unmilled material was 52.56 μm and the % RSD (relative standard deviation) was 7.61 for the 5 values. The D (v, 0.5) for a single pass through the jet mill was 3.90 μm and the % RSD was 1.27, and the D (v, 0.5) from a double pass through the jet mill 3.25 μm and the % RSD was 3.10.
The solution was spray-dried with a B-191 Mini Spray-Drier (Buchi, Flawil, Switzerland) with an inlet temperature of 55° C., outlet temperature of 40° C., at 100% aspirator, at 10% pump, nitrogen flow at 40 mbar and spray flow at 600 units. The spray-dried product was suspended in hexane and Span85 surfactant added to reduce agglomeration. The dispersions were sonicated with cooling for 3-5 minutes for complete dispersion and the dispersed solutions tested on a Malvern Mastersizer X with a Small Volume Sampler (SVS) attachment. […] Visual examination by light microscope of the dispersions of each batch confirmed that spray drying produced small respirable size particles. […]

[2] = HPLC analysis of drug degradation during jet milling; type: physicochemical; settings: HPLC peak area vs unmilled standard; single- and double-pass
Procedure: Two vials (A; single-pass; 150 mg) and (B double-pass; 600 mg) of the micronized drug were available for determining drug degradation during jet milling micronization. […] The chromatographic peak area for the HPLC assay of the unmilled drug standard solution (10 mg/ml) gave a value of 23,427. […] The chromatographic peak areas for vials A and B were 11,979 and 11,677, respectively.

[3] = Solubility of DHEA-S in NaCl media; type: physicochemical
Description: Inhalation of pure water can produce a cough stimulus. […] The temperature effect is weaker at high NaCl concentrations.

[4] = Short-term solution stability of DHEA-S nebulizer formulation; type: physicochemical; settings: for appearance / solution stability: 10 mg/mL in 0.12% NaCl
Procedure: Aliquots of this solution are filled into clear glass vials and stored at RT (24-26° C.) and at 40° C. The samples are checked daily for DHEA-S content, DHEA content, and appearance. For each time point, duplicate samples are withdrawn and diluted from each vial. […] The study is stopped on day three. […] The solution should easily be stable for the day of reconstitution in a clinical trial. The following section describes the aerosol properties of this formulation.

[5] = tested on: rat peritoneal mast cells; experiment: Mast cell degranulation (histamine secretion) after compound 48/80; type: cell-based
Procedure: We determined whether DHEA-sulfate would reduce mast cell degranulation after stimulation with compound 48/80 in rat peritoneal mast cells. Mast cell degranulation was quantified by measurement of histamine, a substance contained within the secretory granules of mast cells. The release of histamine is believed to parallel the release of leukotrienes and contribute to the respiratory dysfunction.
Freshly isolated rat peritoneal mast cells (2×10^5 cells) were pre-incubated for 5 min at 37° C. in a Balanced Salt Solution containing 150 mM NaCl (pH 7.4), 2.7 mM KCl, 0.9 mM CaCl2, 4 mM Na2HPO4, 2.7 mM KH2PO4, 1.75 mg/ml BSA and 0.1 μg/ml compound 48/80.
Following incubation, the mixture is cooled to 4° C. then centrifuged at 4500 rpm for 5 min. The supernatant is collected and mixed for 30 min at 4° C. with 5% TCA (trichloroacetic acid) to cause protein precipitation. After centrifugation at 9500×g for 15 min, the supernatant is collected and mixed with 0.25 M HCl. Thereafter, the samples are mixed with 2M NaOH and 0.2% OPT (ortho-phtalaldehyde) and incubated for 30 min at 4° C. in darkness, after which time the reaction is stopped by addition of 0.5 M H2SO4.
The amount of secreted histamine is quantified by measuring the fluorescence intensity at λex=360 nm and λem=450 nm using a spectrofluorimeter (GeminiXS, Molecular Devices). The results are expressed as a percent inhibition of control histamine secretion.

[6] = Solubility remarks in text; type: physicochemical; settings: 10^-4 M; mast cell assay conditions
[7] = Solid-state stability with and without lactose at 50° C. (DHEA formed, HPLC); type: physicochemical; settings: 1 week at 50° C.; neat and lactose blend
Description: These conditions were used to stress the formulation in order to predict its long-term stability results. […] The primary degradant is DHEA. […] The materials on accelerated storage become more cohesive with time as evidenced by clumping during sample weighing for chemical analysis. […] This is a considerable disadvantage since lactose is the most commonly used inhalation excipient for dry powder formulations. Continuing with the virtually anhydrous form would mean limiting formulations to neat powder or undertaking more comprehensive safety studies to use a novel excipient.

[8] = tested on: Intracellular adenosine in various Rat Tissues; experiment: In vivo effect on adenosine levels in rat tissues
Procedure: Folinic acid (50 mg/kg) was administered intraperitoneally once daily for fourteen days. […] Hearts were removed from animals and flash frozen in liquid nitrogen with 10 s of death. Liver and lungs were removed en bloc and flash frozen with 30 s of death. Brain tissue was subsequently dissected.

HT-29 SF cells [9] = experiment: DHEA effect on cell cycle (flow cytometry); type: cell-based, human
HT-29 SF cells [10] = experiment: Reversal of DHEA effect on cell cycle; type: cell-based, human; settings: 25 FM DHEA
[11] = 15° C., 20 mM Na^+, Ksp 1316 mM^2

C[C@]12CC[C@H](OS(=O)(=O)[O-])CC1=CC[C@@H]1[C@@H]2CC[C@]2(C)C(=O)CC[C@@H]12.[Na+] [Anhydrous DHEA-S]
mean particle size by light microscope [1]: 2.4 μm and 2.0 μm

C[C@]12CC[C@H](OS(=O)(=O)[O-])CC1=CC[C@@H]1[C@@H]2CC[C@]2(C)C(=O)CC[C@@H]12.[Na+] [DHEA-S, sodium dehydroepiandrostenone sulfate]
degradation during jet milling micronization [2]: no detectable degradation
estimated DHEA-S solution concentration [3, 11]: 10.7 mg/mL
estimated DHEA-S^− solution concentration [3, 11]: 27.5 mM
solubility as a function of NaCl concentration ([3]; RT and refrigerated): decrease with NaCl concentration
effect of 20 mM phosphate buffer on solubility ([3]; RT, buffered vs unbuffered): suppress the solubility
solution stability ([4]; 7.5 mg/mL of DHEA-S in 0.12% NaCl, RT): stable for at least one day at RT
appearance / solution stability ([4]; 40° C.): became cloudy after two days of storage
appearance / solution stability ([4]; RT (24-26° C.)): slight precipitate is observed on the third day
maximal effect, inhibition of mast cell degranulation ([5]; at 0.1 uM, percent inhibition of control histamine secretion): 69.9%
inhibition of mast cell degranulation ([5]; rat peritoneal mast cells, compound 48/80): concentration-dependent inhibition
EC50 ([5]; rat peritoneal mast cells, compound 48/80, histamine secretion, read-out: EC50, inhibition of mast cell degranulation): 170 nM
solubility under assay conditions [6]: highly limited

CC12CCC3C(CC=C4CC(OS(=O)(=O)[O-])CCC43C)C1CCC2=O.[Na+] (centres unmarked) [DHEA-S Dihydrate]
DHEA generated on storage [7]: virtually no DHEA generated

C[C@]12CC[C@H](O)CC1=CC[C@@H]1[C@@H]2CC[C@]2(C)C(=O)CC[C@@H]12 [DHEA, 3β-hydroxyandrost-5-en-17-one]
effect on tissue adenosine ([8]; rat, in vivo): multi-organ depletion of adenosine
cell cycle distribution (HT-29 SF cells [9]; 200 μM DHEA, after 24 hours): more rapid increase in the percentage of cells in G1 and a decreased proportion of cells in S phase
cell cycle effect (HT-29 SF cells [9]; 25, 50, 200 μM, 24-72 hours): G1 block in HT-29 SF cells in a time-and dose-dependent manner

C[C@@](O)(CCO)CC(=O)O [MVA, mevalonic acid]
prevention of DHEA-induced S phase depletion (HT-29 SF cells [10]; 48 hours): partially prevented this effect

CC(C)CCC[C@@H](C)[C@H]1CC[C@H]2[C@@H]3CC=C4C[C@@H](O)CC[C@]4(C)[C@H]3CC[C@]12C [CH, cholesterol]
prevention of DHEA-induced S phase depletion (HT-29 SF cells [10]; 72 hours): no effect

C[C@]12CCC(=O)C=C1CC[C@@H]1[C@@H]2CC[C@@]2(C)[C@H]1CC[C@]2(C)O [Methyltestosterone]
effect on tissue adenosine ([8]; rats, administered daily for two weeks): multi-organ depletion of adenosine

Reference: patent publication US20050113317A1, “Combination of dehydroepiandrosterone or dehydroepiandrosterone-sulfate with a cromone for treatment of asthma or chronic obstructive pulmonary disease” (priority 2003, published 2005)
